Data as given in patent US20230091225A1, “Bifunctional chimeric heterocyclic compounds for targeted degradation of androgen receptors and use thereof” (HINOVA PHARMACEUTICALS INC., priority 2019, published 2023).
Like-named read-outs stand apart in the source and are kept apart here.

Biological target: T1, androgen receptor (AR) (Homo sapiens, UniProt P10275)
T1 sequence (P10275 1-920): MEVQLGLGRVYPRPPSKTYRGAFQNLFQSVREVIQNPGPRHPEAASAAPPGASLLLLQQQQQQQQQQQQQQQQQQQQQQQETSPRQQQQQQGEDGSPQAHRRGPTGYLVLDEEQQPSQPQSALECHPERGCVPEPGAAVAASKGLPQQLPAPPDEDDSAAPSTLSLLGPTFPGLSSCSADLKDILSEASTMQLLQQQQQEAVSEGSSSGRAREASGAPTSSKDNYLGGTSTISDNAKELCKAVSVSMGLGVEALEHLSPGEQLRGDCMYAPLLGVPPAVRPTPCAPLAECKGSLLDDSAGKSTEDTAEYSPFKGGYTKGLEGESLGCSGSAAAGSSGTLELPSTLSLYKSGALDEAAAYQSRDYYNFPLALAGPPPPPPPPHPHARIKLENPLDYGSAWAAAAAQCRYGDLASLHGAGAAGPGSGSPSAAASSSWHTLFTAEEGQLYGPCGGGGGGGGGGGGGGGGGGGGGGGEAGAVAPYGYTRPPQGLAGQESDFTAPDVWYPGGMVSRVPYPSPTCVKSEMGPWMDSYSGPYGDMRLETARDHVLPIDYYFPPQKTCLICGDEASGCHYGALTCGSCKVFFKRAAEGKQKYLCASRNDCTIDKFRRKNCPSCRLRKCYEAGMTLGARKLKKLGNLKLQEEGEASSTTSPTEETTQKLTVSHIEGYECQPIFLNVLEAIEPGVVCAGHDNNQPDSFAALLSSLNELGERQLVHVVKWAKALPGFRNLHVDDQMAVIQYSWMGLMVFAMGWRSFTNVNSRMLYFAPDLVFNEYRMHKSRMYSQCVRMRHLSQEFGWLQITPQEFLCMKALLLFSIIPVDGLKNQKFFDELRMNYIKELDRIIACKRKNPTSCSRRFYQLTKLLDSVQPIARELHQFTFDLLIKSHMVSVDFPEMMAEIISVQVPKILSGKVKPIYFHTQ
Assay: Degradation of androgen receptor (AR) protein in VCaP cells by ELISA
Assay type: cell-based
Conditions: for Dmax: VCaP

[1] = AR degradation, VCaP cells, 16 h, ELISA, Table 3-1, read-out: DC50
[2] = AR degradation, VCaP cells, 16 h, ELISA, Table 3-1, read-out: Dmax (%)

SMILES	DC50 [1] [nM]	Dmax [%]	Dmax [2] [%]	DC50 [nM]	further results
N#Cc1ccc(O[C@H]2CC[C@H](NC(=O)c3ccc(N4CCN(C[C@@H]5[C@H]6CN(c7cc8c(cc7F)C(=O)N(C7CCC(=O)NC7=O)C8=O)C[C@@H]56)CC4)nn3)CC2)cc1Br (stereo partly drawn) [Compound 126, N-((1r,4r)-4-(3-bromo-4-cyanophenoxy)cyclohexyl)-6-(4-(((1R,5S,6s)-3-(2-(2,6-dioxopiperidin-3-yl)-6-fluoro-1,3-dioxoisoindolin-5-yl)-3-azabicyclo[3.1.0]hexan-6-yl)methyl)piperazin-1-yl)pyridazine-3-amide]	< 10	> 80			
N#Cc1ccc(OC2CCC(NC(=O)c3cnc(N4CCN(CC5[C@H]6CN(c7cc8c(cc7F)C(=O)N(C7CCC(=O)NC7=O)C8=O)C[C@@H]56)CC4)nc3)CC2)cc1Cl (stereo partly drawn) [Compound 128]					Dmax (%): +++ (key: ++++: >80%; +++: 80%-60%; ++: 60%-40%; +: <40%); DC50 (read-out: DC50): 10 to 100 nM
N#Cc1ccc(O[C@H]2CC[C@H](NC(=O)c3ccc(N4CC5(CC(N6CCN(c7cc8c(cc7F)C(=O)N(C7CCC(=O)NC7=O)C8=O)CC6)C5)C4)nn3)CC2)cc1Cl (stereo partly drawn) [Compound 129, N-((1r,4r)-4-(3-chloro-4-cyanophenoxy)cyclohexyl)-6-(6-(4-(2-(2,6-dioxopiperidin-3-yl)-6-fluoro-1,3-dioxoisoindolin-5-yl)piperazin-1-yl)-2-azaspiro[3.3]heptan-2-yl)pyridazine-3-amide]	< 10		> 80		
N#Cc1ccc(O[C@H]2CC[C@H](NC(=O)c3ccc(N4CCC(CN5CCC6(CC5)CN(c5ccc7c(c5)C(=O)N(C5CCC(=O)NC5=O)C7=O)C6)CC4)nn3)CC2)cc1 (stereo partly drawn) [Compound 131, N-((1r,4r)-4-(4-cyanophenoxy)cyclohexyl)-6-(4-((2-(2-(2,6-dioxopiperidin-3-yl)-1,3-dioxoisoindolin-5-yl)-2,7-diazaspiro[3.5]nonan-7-yl)methyl)piperidin-1-yl)pyridazine-3-carboxamide]		60 to 80		10 to 100	
N#Cc1ccc(O[C@H]2CC[C@H](NC(=O)c3ccc(N4CCC(CN5CCC6(CC5)CN(c5cc7c(cc5F)C(=O)N(C5CCC(=O)NC5=O)C7=O)C6)CC4)nn3)CC2)cc1 (stereo partly drawn) [Compound 132, N-((1r,4r)-4-(4-cyanophenoxy)cyclohexyl)-6-(4-((2-(2-(2,6-dioxapiperidin-3-yl)-6-fluoro-1,3-dioxoisoindolin-5-yl)-2,7-diazaspiro[3.5]nonan-7-yl)methyl)piperidin-1-yl)pyridazine-3-carboxamide]	10 to 100	60 to 80			
[2H]C([2H])([2H])N(C(=O)c1ccc(N2CCC(CN3CCN(c4cc5c(cc4F)C(=O)N(C4CCC(=O)NC4=O)C5=O)CC3)CC2)nn1)[C@H]1CC[C@H](Oc2ccc(C#N)c(Cl)c2)CC1 (stereo partly drawn) [Compound 133, N-((1r,4r)-4-(3-chloro-4-cyanophenoxy)cyclohexyl)-6-(4-((4-(2-(2,6-dioxopiperidin-3-yl)-6-fluoro-1,3-dioxoisoindolin-5-yl)piperazin-1-yl)methyl)piperidin-1-yl)-N-deuteromethyl-pyridazine-3-amide]		< 40		> 300	
N#Cc1ccc(O[C@H]2CC[C@H](NC(=O)c3ncc(N4CCC(CN5CCC6(CC5)CN(c5ccc7c(c5)C(=O)N(C5CCC(=O)NC5=O)C7=O)C6)CC4)cn3)CC2)cc1Cl (stereo partly drawn) [Compound 135]	> 300		< 40		
N#Cc1ccc(O[C@H]2CC[C@H](NC(=O)c3ccc(N4CCC(CN5CCC(Oc6ccc7c(c6)C(=O)N(C6CCC(=O)NC6=O)C7=O)CC5)CC4)nn3)CC2)cc1Cl (stereo partly drawn) [Compound 147]	10 to 100		60 to 80		
N#Cc1ccc(O[C@H]2CC[C@H](NC(=O)c3ncc(N4CCC(CN5CCC6(CC5)CN(c5cc7c(cc5F)C(=O)N(C5CCC(=O)NC5=O)C7=O)C6)CC4)cn3)CC2)cc1Cl (stereo partly drawn) [Compound 148]		40 to 60		> 300	
N#Cc1ccc(O[C@H]2CC[C@H](NC(=O)c3ncc(N4CCC(CN5CCC6(CC5)CN(c5ccc7c(c5)C(=O)N(C5CCC(=O)NC5=O)C7=O)C6)CC4)cn3)CC2)cc1Cl (stereo partly drawn) [Compound 149]		< 40		> 300	
N#Cc1ccc(O[C@H]2CC[C@H](NC(=O)c3ncc(N4CC5(CCN(CC6CCN(c7cc8c(cc7F)C(=O)N(C7CCC(=O)NC7=O)C8=O)CC6)CC5)C4)cn3)CC2)cc1Cl (stereo partly drawn) [Compound 150]	> 300	< 40			
N#Cc1ccc(O[C@H]2CC[C@H](NC(=O)c3ccc(N4CCC(CN5CCC6(CC5)CN(c5ccc7c(c5)C(=O)N(C5CCC(=O)NC5=O)C7=O)C6)CC4)nn3)CC2)cc1C(F)(F)F (stereo partly drawn) [Compound 151]		> 80		< 10	
N#Cc1ccc(O[C@H]2CC[C@H](NC(=O)c3ccc(N4CCC(CN5CCC6(CC5)CN(c5cc7c(cc5F)C(=O)N(C5CCC(=O)NC5=O)C7=O)C6)CC4)nn3)CC2)cc1C(F)(F)F (stereo partly drawn) [Compound 152]		> 80		10 to 100	
[2H]C([2H])([2H])Oc1cc(O[C@H]2CC[C@H](NC(=O)c3ccc(N4CCC(CN5CCC6(CC5)CN(c5ccc7c(c5)C(=O)N(C5CCC(=O)NC5=O)C7=O)C6)CC4)nn3)CC2)ccc1C#N (stereo partly drawn) [Compound 153]		> 80		< 10	
CCOc1cc(O[C@H]2CC[C@H](NC(=O)c3ccc(N4CCC(CN5CCC6(CC5)CN(c5ccc7c(c5)C(=O)N(C5CCC(=O)NC5=O)C7=O)C6)CC4)nn3)CC2)ccc1C#N (stereo partly drawn) [Compound 154]		> 80		< 10	
COCCOc1cc(O[C@H]2CC[C@H](NC(=O)c3ccc(N4CCC(CN5CCC6(CC5)CN(c5ccc7c(c5)C(=O)N(C5CCC(=O)NC5=O)C7=O)C6)CC4)nn3)CC2)ccc1C#N (stereo partly drawn) [Compound 155]		> 80		< 10	
N#Cc1ccc(O[C@H]2CC[C@H](NC(=O)c3ccc(N4CCC5(CCN(C6CCN(c7cc8c(cc7F)C(=O)N(C7CCC(=O)NC7=O)C8=O)CC6)C5)C4)nn3)CC2)cc1Cl (stereo partly drawn) [Compound 166, N-((1r,4r)-4-(3-chloro-4-cyanophenoxy)cyclohexyl)-6-(7-(1-(2-(2,6-dioxopiperidin-3-yl)-6-fluoro-1,3-dioxoisoindolin-5-yl)piperidine-4-yl)-2,7-diazaspiro[4.4]nonan-2-yl)pyridazine-3-formamide]	< 10		> 80		
C[C@H]1CN(c2ccc(C(=O)N[C@H]3CC[C@H](Oc4ccc(C#N)c(Cl)c4)CC3)nn2)CCN1C[C@H]1[C@@H]2CN(c3cc4c(cc3F)C(=O)N(C3CCC(=O)NC3=O)C4=O)C[C@@H]21 (stereo partly drawn) [Compound 168]	< 10		> 80		
C[C@H]1CN(c2cnc(C(=O)N[C@H]3CC[C@H](Oc4ccc(C#N)c(Cl)c4)CC3)cn2)CCN1C[C@H]1[C@@H]2CN(c3cc4c(cc3F)C(=O)N(C3CCC(=O)NC3=O)C4=O)C[C@@H]21 (stereo partly drawn) [Compound 169]	10 to 100		60 to 80		
C[C@H]1CN(C[C@@H]2[C@H]3CN(c4cc5c(cc4F)C(=O)N(C4CCC(=O)NC4=O)C5=O)C[C@@H]23)CCN1c1ccc(C(=O)N[C@H]2CC[C@H](Oc3ccc(C#N)c(Cl)c3)CC2)nn1 (stereo partly drawn) [Compound 170]	< 10		> 80		
C[C@H]1CN(C[C@@H]2[C@H]3CN(c4cc5c(cc4F)C(=O)N(C4CCC(=O)NC4=O)C5=O)C[C@@H]23)CCN1c1cnc(C(=O)N[C@H]2CC[C@H](Oc3ccc(C#N)c(Cl)c3)CC2)cn1 (stereo partly drawn) [Compound 171]	10 to 100		> 80		
N#Cc1ccc(O[C@H]2CC[C@H](NC(=O)c3cnc(N4CCC(CN5CCC6(C5)CN(c5cc7c(cc5F)C(=O)N(C5CCC(=O)NC5=O)C7=O)C6)CC4)cn3)CC2)cc1Cl (stereo partly drawn) [Compound 186, N-((1r,4r)-4-(3-chloro-4-cyanophenoxy)cyclohexyl)-5-(4-((2-(2-(2,6-dioxopiperidin-3-yl)-6-fluoro-1,3-dioxoisoindolin-5-yl)-2,6-diazaspiro[3.4]octan-6-yl)methyl)piperidin-1-yl)pyrazine-2-carboxamide]	< 10		> 80		
N#Cc1ccc(O[C@H]2CC[C@H](NC(=O)c3cnc(N4CCC(CN5CCC6(C5)CN(c5ccc7c(c5)C(=O)N(C5CCC(=O)NC5=O)C7=O)C6)CC4)cn3)CC2)cc1Cl (stereo partly drawn) [Compound 187, N-((1r,4r)-4-(3-chloro-4-cyanophenoxy)cyclohexyl)-5-(4-((2-(2-(2,6-dioxopiperidin-3-yl)-1,3-dioxoisoindolin-5-yl)-2,6-diazaspiro[3.4]octan-6-yl)methyl)piperidin-1-yl)pyrazine-2-carboxamide]	< 10		> 80		
N#Cc1ccc(O[C@H]2CC[C@H](NC(=O)c3cnc(N4CCC(CN5CC6(CCN(c7cc8c(cc7F)C(=O)N(C7CCC(=O)NC7=O)C8=O)C6)C5)CC4)cn3)CC2)cc1Cl (stereo partly drawn) [Compound 188, N-((1r,4r)-4-(3-chloro-4-cyanophenoxy)cyclohexyl)-5-(4-((6-(2-(2,6-dioxopiperidin-3-yl)-6-fluoro-1,3-dioxoisoindolin-5-yl)-2,6-diazaspiro[3.4]octan-2-yl)methyl)piperidin-1-yl)pyrazine-2-carboxamide]	< 10		> 80		
